Measured values as given in paper PMC11593002 (Current Issues in Molecular Biology, 2024).
Values joined by “and” are separate entries in the source; they are usually repeats but may differ in a detail not shown here. Identical values can stand only once. “Also recorded” adds a separate entry of the source. Values belong to the compound of their own block, whether it stands above or below them.

Columns and labels:
MCF-7 [1] = test: Cell cycle analysis by propidium iodide staining (FACS), MCF-7; assay type: cell-based; details: for effect on cell cycle of combination vs anticancer drug alone: drug + Iscador Qu (selected combinations); for effect on cell cycle: mono treatment
Protocol: (§1) After trypsinization, the cells (MCF7, MDA-MB-231, and MCF10A) were resuspended in medium + 10% FCS and centrifuged (1000 rpm, 5 min); then, the pellet was suspended in PBS (1 mL) and fixed with EtOH. After suspension in 2.5 mL pre-cold 70% EtOH, the cells were incubated on ice for 15 min. The staining procedure was as follows: The pellet was suspended in a 500 μL PI solution in PBS (final concentration of PI 1 μg/mL) and 0.1 mg/mL RNAse A, and 0.05% Triton X-100 was added. Following the incubation for 10 min at 37 °C, the cells were transferred to the flow cytometer, and cell fluorescence was measured. The samples were measured by flow cytometry (LSR II, BD Biosciences, Franklin Lakes, NJ, USA) and analyzed using BD FACS DIVA software v. 6.1.3 (BD Biosciences). The control samples of all cell lines underwent the same treatment but without the adding any anticancer drugs or Iscador Qu.
(§2) In the search of the mechanism of action, the cell cycle arrest induced after treatment with the selected combinations was analyzed. The cell aliquots were collected, and FACS analyses were used to detect the effects of the treatments. A propidium iodide staining assay was performed (Figures S1 and S2).

MCF-7 [2] = test: MTT-dye reduction antiproliferative assay, MCF-7; assay type: cell-based; details: for increase in IC50: drug + Iscador Qu, concentration not given
Text: (§3) Breast cell lines (MCF-10A, MCF-7, and MDA-MB-231) were purchased from the American Type Culture Collection—ATCC (Manassas, VA, USA). MCF-7 and MDA-MB-231 were cultivated in Dulbecco’s modified Eagle’s medium (DMEM), supplemented with 10% fetal bovine serum (FBS), 1% sodium pyruvate, and 1% MEM non-essential amino acids (NEAA) without antibiotics. The non-tumorigenic cell line (MCF-10A) was cultivated in DMEM medium (Sigma-Aldrich, St. Louis, MO, USA) and supplemented with 10% FBS, 1% sodium pyruvate, 1% non-essential amino acids (NEAA), 20 ng/mL human epidermal growth factor (hEGF), 10 μg/mL insulin, and 0.5 μg/mL hydrocortisone without antibiotics. All cell lines were maintained in a humidified atmosphere with 5% CO2 at 37 °C.
(§4) The antiproliferative activity was tested via using the standard MTT-dye reduction assay described by Mosmann. The method is based on the metabolism of the tetrazolium salt MTT to insoluble formazan. The formazan absorption was registered using a microplate reader at λ = 540 nm. The measured absorption is an indicator of cell viability and metabolic activity.

MDA-MB-231 [3] = test: MTT-dye reduction antiproliferative assay, MDA-MB-231; assay type: cell-based
Text: as §3, §4

MCF-10A = test: MTT-dye reduction antiproliferative assay, MCF-10A; assay type: cell-based; details: for IC50: Homo sapiens
Text: as §3, §4

MDA-MB-231 [4] = test: Cell cycle analysis by propidium iodide staining (FACS), MDA-MB-231; assay type: cell-based; details: for effect on cell cycle of combination vs anticancer drug alone: drug + Iscador Qu (selected combinations); for effect on cell cycle: treatment alone
Protocol: as §1, §2

microtubule = tested on: microtubule; design: method as in PMID 7670132; details: cited from earlier work
[5] = Iscador Qu both concentrations (10 and 20 µg/mL) or not specified
[6] = drug + Iscador Qu 10 µg/mL vs drug alone
[7] = drug + Iscador Qu 20 µg/mL vs drug alone
[8] = MDA-MB-231, Iscador Qu both concentrations (40 and 80 µg/mL) or not specified
[9] = MDA-MB-231, drug + Iscador Qu 40 µg/mL vs drug alone
[10] = MDA-MB-231, drug + Iscador Qu 80 µg/mL vs drug alone
[11] = Iscador Qu both concentrations (50 or 100 µg/mL) or not specified
[12] = higher Iscador Qu concentration (20 µg/mL)
[13] = drug + Iscador Qu 100 µg/mL vs drug alone
[14] = drug + Iscador Qu 50 µg/mL vs drug alone

SMILES: O=C1[O][Pt]2([NH][C@@H]3CCCC[C@H]3[NH]2)[O]C1=O [Oxaliplatin]
- effect on cell cycle of combination vs anticancer drug alone (MCF-7 [1]): no significant difference
- effect on cell cycle (MCF-7 [1]): arrest in the G2/M phase
- effect of combined treatment with Iscador Qu on IC50 / antiproliferative effect (MCF-7 [2]; [5]): increased the antiproliferative effect
- Relative Change of IC50 (%) (MCF-7 [2]; [6]): −47.30%
- fold decrease in IC50 (MCF-7 [2]; [6]): ~2 fold
- Relative Change of IC50 (%) (MCF-7 [2]; [7]): −80.76%
- fold decrease in IC50 (MCF-7 [2]; [7]): 5.2 fold
- reduction in IC50 (MCF-7 [2]; [7]): 81%
- effect of combined treatment with Iscador Qu on IC50 / antiproliferative effect (MDA-MB-231 [3]; [8]): increased the antiproliferative effect
- Relative Change of IC50 (%) (MDA-MB-231 [3]; [9]): −48.45%
- fold decrease in IC50 (MDA-MB-231 [3]; [9]): 1.9 fold
- Relative Change of IC50 (%) (MDA-MB-231 [3]; [10]): −69.56%
- fold decrease in IC50 (MDA-MB-231 [3]; [10]): 3.3 fold
- reduction in IC50 (MDA-MB-231 [3]; [10]): 70%
- effect of combined treatment with Iscador Qu on IC50 / antiproliferative effect (MCF-10A; [11]): increased the antiproliferative effect

SMILES: O=c1[nH]cc(F)c(=O)[nH]1 [5-Fluorouracyl, 5-Fluorouracil]
- IC50 (MCF-7 [2]; Homo sapiens, MCF7, drug alone): 6.79 µM
- fold decrease in IC50 (MCF-7 [2]; [6]): 1.5 fold
- fold decrease in IC50 (MCF-7 [2]; [7]): 2.7 fold
- reduction in IC50 (MCF-7 [2]; [7]): ~65%
- IC50 (MDA-MB-231 [3]; Homo sapiens, MDA-MB-231, drug alone): 2040 nM
- fold decrease in IC50 (MDA-MB-231 [3]; [9]): 1.2 fold
- fold decrease in IC50 (MDA-MB-231 [3]; [10]): 1.5 fold
- reduction in IC50 (MDA-MB-231 [3]; [10]): about 30%
- lesser reduction in IC50 in MDA-MB-231 compared to MCF-7 (MDA-MB-231 [3]; combination with Iscador Qu): 33%
- effect of combined treatment with Iscador Qu on IC50 / antiproliferative effect (MCF-10A; Iscador Qu 50 µg/mL): did not change the antiproliferative properties
- effect of combined treatment with Iscador Qu on IC50 / antiproliferative effect (MCF-10A; Iscador Qu 100 µg/mL): slightly decreased

SMILES: O=C(c1cc(Cc2n[nH]c(=O)c3ccccc23)ccc1F)N1CCN(C(=O)C2CC2)CC1 [Olaparib]
- effect on cell cycle of combination vs anticancer drug alone (MCF-7 [1]): no significant difference
- effect on cell cycle (MCF-7 [1]): arrest in the G2/M phase
- effect of combined treatment with Iscador Qu on IC50 / antiproliferative effect (MCF-7 [2]; [5]): antagonistic effect; also recorded: increase in IC50 dose
- increase in IC50 (MCF-7 [2]): 37%
- effect of combined treatment with Iscador Qu on IC50 / antiproliferative effect (MCF-7 [2]; [12]): negative treatment effect
- effect of combined treatment with Iscador Qu on IC50 / antiproliferative effect (MDA-MB-231 [3]; MDA-MB-231, Iscador Qu 40 µg/mL): negative treatment effect
- effect of combined treatment with Iscador Qu on IC50 / antiproliferative effect (MDA-MB-231 [3]; [8]): increase in IC50 dose
- increase in IC50 (MDA-MB-231 [3]; [10]): 22%
- effect of combined treatment with Iscador Qu on IC50 / antiproliferative effect (MCF-10A; [11]): slight decrease in IC50 dose

SMILES: CN(C)C(=O)c1cc2cnc(Nc3ccc(N4CCNCC4)cn3)nc2n1C1CCCC1 [Ribociclib]
- fold decrease in IC50 (MCF-7 [2]; [6]): 2 fold
- fold decrease in IC50 (MCF-7 [2]; [7]): 3 fold
- reduction in IC50 (MCF-7 [2]; [7]): ~65%
- effect of combined treatment with Iscador Qu on IC50 / antiproliferative effect (MDA-MB-231 [3]; [8]): did not significantly affect; also recorded: No significant alteration in IC50
- effect of combined treatment with Iscador Qu on IC50 / antiproliferative effect (MCF-10A; [11]): did not significantly affect

- increase in IC50 (MCF-7 [2]): 31%
SMILES: CC/C(=C(\c1ccccc1)c1ccc(OCCN(C)C)cc1)c1ccccc1 [Tamoxifen]

SMILES: COc1cccc2c1C(=O)c1c(O)c3c(c(O)c1C2=O)C[C@@](O)(C(=O)CO)C[C@@H]3O[C@H]1C[C@H](N)[C@@H](O)[C@H](C)O1 [Epirubicin]
- effect of combined treatment with Iscador Qu on IC50 / antiproliferative effect (MCF-7 [2]; [5]): did not exhibit significant sensitivity; also recorded: No effect
- fold decrease in IC50 (MDA-MB-231 [3]; [9]): 2 fold
- fold decrease in IC50 (MDA-MB-231 [3]; [10]): 2 fold
- reduction in IC50 (MDA-MB-231 [3]; [10]): 47%
- IC50 (MCF-10A; drug alone): 387000 nM
- fold decrease in IC50 (MCF-10A; [13]): 2 fold

SMILES: COc1cccc2c1C(=O)c1c(O)c3c(c(O)c1C2=O)C[C@@](O)(C(=O)CO)C[C@@H]3O[C@H]1C[C@H](N)[C@H](O)[C@H](C)O1 [Doxorubicin]
- fold decrease in IC50 (MCF-7 [2]; [6]): about 2 fold
- reduction in IC50 dose (MCF-7 [2]; [6]): 50%
- fold decrease in IC50 (MCF-7 [2]; [7]): about 2 fold
- reduction in IC50 dose (MDA-MB-231 [3]; [9]): 21%
- fold decrease in IC50 (MCF-10A; [14]): about 2 fold
- fold decrease in IC50 (MCF-10A; [13]): about 2 fold

SMILES: CN(Cc1cnc2nc(N)nc(N)c2n1)c1ccc(C(=O)N[C@@H](CCC(=O)O)C(=O)O)cc1 [Methotrexate]
- effect of combined treatment with Iscador Qu on IC50 / antiproliferative effect (MCF-7 [2]; [5]): No effect
- effect of combined treatment with Iscador Qu on IC50 / antiproliferative effect (MCF-7 [2]; Iscador Qu both concentrations (10 and 20 µg/mL) or not specified, listed as methotrexate): did not exhibit any sensitivity
- fold decrease in IC50 (MDA-MB-231 [3]; [10]): 1.5 fold
- reduction in IC50 (MDA-MB-231 [3]; [10]): about 30%
- effect of combined treatment with Iscador Qu on IC50 / antiproliferative effect (MCF-10A; Iscador Qu 50 µg/mL): did not reduce the IC50 dose
- effect of combined treatment with Iscador Qu on IC50 / antiproliferative effect (MCF-10A; Iscador Qu 100 µg/mL): slightly increased

SMILES: N.N.[Cl][Pt][Cl] [Cisplatin, cis-diamminedichloroplatinum (II)]
- effect on cell cycle of combination vs anticancer drug alone (MDA-MB-231 [4]): did not alter the effect
- effect on cell cycle (MDA-MB-231 [4]): blocked the cells in the S phase
- Relative Change of IC50 (%) (MCF-7 [2]; [6]): 8.36%
- Relative Change of IC50 (%) (MCF-7 [2]; [7]): −29.37%
- reduction in IC50 (MCF-7 [2]; [7]): 30%
- Relative Change of IC50 (%) (MDA-MB-231 [3]; [9]): 56.77%
- Relative Change of IC50 (%) (MDA-MB-231 [3]; [10]): 43.80%
- increase in IC50 (MDA-MB-231 [3]; [10]): 44%
- fold increase in IC50 (reduced antiproliferative effect) (MDA-MB-231 [3]; MDA-MB-231, drug + Iscador Qu, concentration not given): 1.5 fold and 1.6 fold
- effect of combined treatment with Iscador Qu on IC50 / antiproliferative effect (MCF-10A; [11]): enhanced the antiproliferative effect

SMILES: CC(=O)O[C@@]12CO[C@@H]1C[C@H](O)[C@@]1(C)C(=O)[C@H](O)C3=C(C)[C@@H](OC(=O)[C@H](O)[C@@H](NC(=O)OC(C)(C)C)c4ccccc4)C[C@@](O)([C@@H](OC(=O)c4ccccc4)[C@H]21)C3(C)C [Docetaxel]
- effect on cell cycle of combination vs anticancer drug alone (MDA-MB-231 [4]): did not alter the effect
- effect on cell cycle (MDA-MB-231 [4]): cell cycle arrest in the G0 phase
- potency as an inhibitor of microtubule depolymerization compared to Paclitaxel (microtubule): 2 fold
- effect of combined treatment with Iscador Qu on IC50 / antiproliferative effect (MCF-7 [2]; [12]): very slight IC50 decrease
- effect of combined treatment with Iscador Qu on IC50 / antiproliferative effect (MCF-7 [2]; low Iscador Qu concentration (10 µg/mL)): IC50 increase
- fold decrease in IC50 (MDA-MB-231 [3]; [9]): more than 2 fold
- fold decrease in IC50 (MDA-MB-231 [3]; [10]): 4 fold
- reduction in IC50 (MDA-MB-231 [3]; [10]): 72%
- IC50 (MCF-10A; drug + Iscador Qu 50 µg/mL): ~4.2 nM
- IC50 (MCF-10A; drug + Iscador Qu 100 µg/mL): ~4.2 nM
- IC50 (MCF-10A; single treatment with drug): 5.18 nM
- effect of combined treatment with Iscador Qu on IC50 / antiproliferative effect (MCF-10A; [11]): slightly reduced
- fold decrease in IC50 (MCF-10A; [14]): 1.2 fold
- fold decrease in IC50 (MCF-10A; [13]): 1.2 fold

SMILES: CCc1c2c(nc3ccc(OC(=O)N4CCC(N5CCCCC5)CC4)cc13)-c1cc3c(c(=O)n1C2)COC(=O)[C@]3(O)CC [Irinotecan]
- effect of combined treatment with Iscador Qu on IC50 / antiproliferative effect (MCF-7 [2]; [5]): did not affect IC50; also recorded: No effect
- effect of combined treatment with Iscador Qu on IC50 / antiproliferative effect (MDA-MB-231 [3]; [8]): very slight IC50 decrease; also recorded: No significant alteration in IC50
- effect of combined treatment with Iscador Qu on IC50 / antiproliferative effect (MCF-10A; [11]): did not affect IC50
